In PubChem BioAssay (NCI):
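A five-concentration, 48-hour dose response in 96-well plates underlies each endpoint, interpolated linearly between surrounding concentrations. GI50 is the concentration that inhibits growth by half. TGI marks complete inhibition of growth.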

Legend:
Experiment in all cases: inhibition of tumour cell growth, NCI panel, 48 h
786-0 renal = tested on: 786-0 renal
A498 renal = tested on: A498 renal
A549 NSCLC = tested on: A549 NSCLC
ACHN renal = tested on: ACHN renal
BT-549 breast = tested on: BT-549 breast
CAKI-1 renal = tested on: CAKI-1 renal
CCRF-CEM leukemia = tested on: CCRF-CEM leukemia
COLO 205 colon = tested on: COLO 205 colon
DU-145 prostate = tested on: DU-145 prostate
HCC-2998 colon = tested on: HCC-2998 colon
HCT-116 colon = tested on: HCT-116 colon
HCT-15 colon = tested on: HCT-15 colon
HL-60(TB) leukemia = tested on: HL-60(TB) leukemia
HOP-62 NSCLC = tested on: HOP-62 NSCLC
HS 578T breast = tested on: HS 578T breast
HT29 colon = tested on: HT29 colon
IGROV1 ovarian = tested on: IGROV1 ovarian
K-562 leukemia = tested on: K-562 leukemia
KM12 colon = tested on: KM12 colon
M14 melanoma = tested on: M14 melanoma
MALME-3M melanoma = tested on: MALME-3M melanoma
MCF7 breast = tested on: MCF7 breast
MDA-MB-231 breast = tested on: MDA-MB-231 breast
MDA-MB-435 = tested on: MDA-MB-435
MOLT-4 leukemia = tested on: MOLT-4 leukemia
NCI-H226 lung = tested on: NCI-H226 lung
NCI-H23 lung = tested on: NCI-H23 lung
NCI-H460 lung = tested on: NCI-H460 lung
NCI-H522 lung = tested on: NCI-H522 lung
NCI/ADR-RES ovarian = tested on: NCI/ADR-RES ovarian
OVCAR-3 ovarian = tested on: OVCAR-3 ovarian
OVCAR-4 ovarian = tested on: OVCAR-4 ovarian
OVCAR-5 ovarian = tested on: OVCAR-5 ovarian
OVCAR-8 ovarian = tested on: OVCAR-8 ovarian
PC-3 prostate = tested on: PC-3 prostate
RPMI-8226 leukemia = tested on: RPMI-8226 leukemia
RXF 393 renal = tested on: RXF 393 renal
SF-268 CNS = tested on: SF-268 CNS
SF-295 CNS = tested on: SF-295 CNS
SF-539 CNS = tested on: SF-539 CNS
SK-MEL-28 melanoma = tested on: SK-MEL-28 melanoma
SK-MEL-5 melanoma = tested on: SK-MEL-5 melanoma
SK-OV-3 ovarian = tested on: SK-OV-3 ovarian
SN12C renal = tested on: SN12C renal
SNB-19 CNS = tested on: SNB-19 CNS
SNB-75 CNS = tested on: SNB-75 CNS
SR leukemia = tested on: SR leukemia
SW-620 colon = tested on: SW-620 colon
T-47D breast = tested on: T-47D breast
TK-10 renal = tested on: TK-10 renal
UACC-257 melanoma = tested on: UACC-257 melanoma
UACC-62 melanoma = tested on: UACC-62 melanoma
UO-31 renal = tested on: UO-31 renal
HOP-92 NSCLC = tested on: HOP-92 NSCLC
LOX IMVI melanoma = tested on: LOX IMVI melanoma
SK-MEL-2 melanoma = tested on: SK-MEL-2 melanoma
U251 CNS = tested on: U251 CNS

## CCOC(=O)Nc1cc(-c2ccc(C)c(NS(C)(=O)=O)c2)nn2c(C)nnc12
786-0 renal
  GI50: 2640 nM
  TGI: > 100000 nM
A498 renal
  GI50: 1590 nM
  TGI: 5880 nM
A549 NSCLC
  GI50: 3070 nM
  TGI: > 100000 nM
ACHN renal
  GI50: 2640 nM
  TGI: 60700 nM
BT-549 breast
  GI50: 5350 nM
  TGI: > 100000 nM
CAKI-1 renal
  GI50: 537 nM
  TGI: 23600 nM
CCRF-CEM leukemia
  GI50: 1010 nM
  TGI: 14900 nM
COLO 205 colon
  GI50: 452 nM
  TGI: 1550 nM
DU-145 prostate
  GI50: 5020 nM
  TGI: > 100000 nM
HCC-2998 colon
  GI50: 1590 nM
  TGI: 3370 nM
HCT-116 colon
  GI50: 1900 nM
  TGI: 15300 nM
HCT-15 colon
  GI50: 1260 nM
  TGI: 10300 nM
HL-60(TB) leukemia
  GI50: 334 nM
  TGI: 2710 nM
HOP-62 NSCLC
  GI50: 1890 nM
  TGI: 20500 nM
HS 578T breast
  GI50: 563 nM
  TGI: 6820 nM
HT29 colon
  GI50: 809 nM
  TGI: 14100 nM
IGROV1 ovarian
  GI50: 1570 nM
  TGI: 8170 nM
K-562 leukemia
  GI50: 1730 nM
  TGI: > 100000 nM
KM12 colon
  GI50: 2020 nM
  TGI: 19700 nM
M14 melanoma
  GI50: 2100 nM
  TGI: > 100000 nM
MALME-3M melanoma
  GI50: 1110 nM
  TGI: 41500 nM
MCF7 breast
  GI50: 395 nM
  TGI: > 100000 nM
MDA-MB-231 breast
  GI50: 807 nM
  TGI: 20400 nM
MDA-MB-435
  GI50: 1330 nM
  TGI: 41700 nM
MOLT-4 leukemia
  GI50: 2450 nM
  TGI: 9940 nM
NCI-H226 lung
  GI50: 3930 nM
  TGI: 24400 nM
NCI-H23 lung
  GI50: 1930 nM
  TGI: 9160 nM
NCI-H460 lung
  GI50: 2040 nM
  TGI: > 100000 nM
NCI-H522 lung
  GI50: 381 nM
  TGI: 3220 nM
NCI/ADR-RES ovarian
  GI50: 6260 nM
  TGI: > 100000 nM
OVCAR-3 ovarian
  GI50: 1360 nM
  TGI: 6560 nM
OVCAR-4 ovarian
  GI50: 735 nM
  TGI: 10900 nM
OVCAR-5 ovarian
  GI50: 2640 nM
  TGI: 31300 nM
OVCAR-8 ovarian
  GI50: 2040 nM
  TGI: > 100000 nM
PC-3 prostate
  GI50: 1360 nM
  TGI: > 100000 nM
RPMI-8226 leukemia
  GI50: 549 nM
  TGI: 4970 nM
RXF 393 renal
  GI50: 2590 nM
  TGI: 12900 nM
SF-268 CNS
  GI50: 4130 nM
  TGI: > 100000 nM
SF-295 CNS
  GI50: 1850 nM
  TGI: 56300 nM
SF-539 CNS
  GI50: 1860 nM
  TGI: > 100000 nM
SK-MEL-28 melanoma
  GI50: 2690 nM
  TGI: > 100000 nM
SK-MEL-5 melanoma
  GI50: 2680 nM
  TGI: 10400 nM
SK-OV-3 ovarian
  GI50: 1210 nM
  TGI: 5660 nM
SN12C renal
  GI50: 2060 nM
  TGI: 58500 nM
SNB-19 CNS
  GI50: 799 nM
  TGI: > 100000 nM
SNB-75 CNS
  GI50: 477 nM
  TGI: 9130 nM
SR leukemia
  GI50: 643 nM
  TGI: > 100000 nM
SW-620 colon
  GI50: 2420 nM
  TGI: 30900 nM
T-47D breast
  GI50: 1470 nM
  TGI: 17000 nM
TK-10 renal
  GI50: 465 nM
  TGI: 7360 nM
UACC-257 melanoma
  GI50: 1110 nM
  TGI: > 100000 nM
UACC-62 melanoma
  GI50: 445 nM
  TGI: 18500 nM
UO-31 renal
  GI50: 697 nM
  TGI: > 100000 nM

## Cn1c(=O)c(-c2c(Cl)cccc2Cl)cc2cnc(Nc3ccc(I)cc3)nc21
786-0 renal
  GI50: 1950 nM
  TGI: 6220 nM
A498 renal
  GI50: < 10 nM
  TGI: < 10 nM
A549 NSCLC
  GI50: 3720 nM
  TGI: 19400 nM
ACHN renal
  TGI: 712 nM
BT-549 breast
  GI50: 38.9 nM
  TGI: 445 nM
CAKI-1 renal
  GI50: < 24.7 nM
CCRF-CEM leukemia
  GI50: 22.4 nM
  TGI: > 100000 nM
COLO 205 colon
  GI50: 45.8 nM
  TGI: 324 nM
DU-145 prostate
  GI50: < 10 nM
  TGI: 139 nM
HCC-2998 colon
  GI50: < 29.3 nM
  TGI: 213 nM
HCT-116 colon
  TGI: 305 nM
HCT-15 colon
  GI50: 2870 nM
  TGI: 9420 nM
HOP-62 NSCLC
  TGI: 668 nM
HOP-92 NSCLC
  GI50: 17.9 nM
  TGI: 4940 nM
HS 578T breast
  GI50: < 10 nM
  TGI: 235 nM
HT29 colon
  GI50: 122 nM
  TGI: 1560 nM
IGROV1 ovarian
  GI50: 506 nM
  TGI: 3770 nM
K-562 leukemia
  GI50: < 10 nM
  TGI: < 10 nM
KM12 colon
  GI50: 45.2 nM
  TGI: 1500 nM
LOX IMVI melanoma
  GI50: 271 nM
  TGI: 1120 nM
M14 melanoma
  TGI: 346 nM
MALME-3M melanoma
  GI50: 413 nM
  TGI: 3090 nM
MCF7 breast
  GI50: 212 nM
  TGI: > 100000 nM
MDA-MB-231 breast
  GI50: 259 nM
  TGI: 1290 nM
MDA-MB-435
  GI50: < 30.4 nM
MOLT-4 leukemia
  GI50: 17.4 nM
  TGI: 787 nM
NCI-H226 lung
  GI50: 182 nM
NCI-H23 lung
  GI50: 65 nM
  TGI: 469 nM
NCI-H460 lung
  GI50: < 10 nM
  TGI: 10400 nM
NCI-H522 lung
  GI50: 457 nM
  TGI: 1890 nM
NCI/ADR-RES ovarian
  TGI: 225 nM
OVCAR-3 ovarian
  GI50: 15.8 nM
  TGI: 64 nM
OVCAR-4 ovarian
  GI50: 213 nM
  TGI: 7490 nM
OVCAR-5 ovarian
  GI50: 536 nM
  TGI: 3690 nM
OVCAR-8 ovarian
  GI50: 1520 nM
  TGI: > 100000 nM
PC-3 prostate
  GI50: < 12 nM
  TGI: > 100000 nM
RPMI-8226 leukemia
  GI50: < 11.8 nM
  TGI: 78.5 nM
RXF 393 renal
  GI50: 2440 nM
  TGI: 15000 nM
SF-295 CNS
  GI50: 147 nM
  TGI: 1410 nM
SF-539 CNS
  GI50: < 14.6 nM
  TGI: 114 nM
SK-MEL-2 melanoma
  GI50: 1520 nM
  TGI: > 100000 nM
SK-MEL-28 melanoma
  GI50: 479 nM
  TGI: > 73600 nM
SK-MEL-5 melanoma
  GI50: < 10.4 nM
  TGI: 157 nM
SK-OV-3 ovarian
  GI50: 73.4 nM
SN12C renal
  GI50: 505 nM
  TGI: 2370 nM
SNB-19 CNS
  GI50: 625 nM
  TGI: > 100000 nM
SNB-75 CNS
  GI50: 17 nM
  TGI: 155 nM
SR leukemia
  GI50: < 10 nM
  TGI: < 10 nM
SW-620 colon
  GI50: 18.8 nM
  TGI: 2490 nM
T-47D breast
  GI50: 229 nM
  TGI: > 100000 nM
TK-10 renal
  GI50: 459 nM
  TGI: 2120 nM
U251 CNS
  GI50: 305 nM
  TGI: 13600 nM
UACC-257 melanoma
  GI50: 2380 nM
  TGI: > 68800 nM
UACC-62 melanoma
  GI50: 301 nM
  TGI: 1280 nM
UO-31 renal
  GI50: 2440 nM
  TGI: 8280 nM
